Laboratory results as given in patent publication US20230017045A1, “PYRIDINE AND PYRIMIDINE CARBOXYLATE HERBICIDES AND METHODS OF USE THEREOF” (Dow AgroSciences LLC, priority 2017, published 2023).
Like-named read-outs stand apart in the source and are kept apart here.

System: test plant species
Experiment: Post-emergent herbicidal activity test (greenhouse, foliar spray, visual growth reduction)
Assay type: in vivo
Conditions: post-emergence, 336 h, 140 g ai/ha
In short: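 Plants grown in greenhouse (15 h photoperiod, 23-29° C day/22-28° C night) to first or second true leaf stage were sprayed overhead with compound in acetone/water/isopropanol/DMSO/crop oil/X-77 carrier at 187 L/ha. Injury was scored visually after 14 d on a 0-100% scale versus solvent-blank and untreated controls.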

[1] = ECHCG: barnyardgrass (Echinochloa crus-galli), 14 days after application, read-out: Visual Growth Reduction (%) 14 Days After Application, ECHCG
[2] = IPOHE: ivy-leaf morning glory (Ipomoea hederacea), 14 days after application, read-out: Visual Growth Reduction (%) 14 Days After Application, IPOHE
[3] = KCHSC: kochia (Bassia scoparia), 14 days after application, read-out: Visual Growth Reduction (%) 14 Days After Application, KCHSC
[4] = ORYSA: rice (Oryza sativa), 14 days after application, read-out: Visual Growth Reduction (%) 14 Days After Application, ORYSA
[5] = SETFA: giant foxtail (Setaria faberi), 14 days after application, read-out: Visual Growth Reduction (%) 14 Days After Application, SETFA
[6] = SORVU: grain sorghum (Sorghum vulgare), 14 days after application, read-out: Visual Growth Reduction (%) 14 Days After Application, SORVU
[7] = STEME: common chickweed (Stellaria media), 14 days after application, read-out: Visual Growth Reduction (%) 14 Days After Application, STEME
[8] = TRZAS: wheat, spring (Triticum aestivum), 14 days after application, read-out: Visual Growth Reduction (%) 14 Days After Application, TRZAS
[9] = blackgrass (Alopecurus myosuroides), 14 Days After Application, read-out: Visual Growth Reduction (%) ALOMY
[10] = canada thistle (Cirsium arvense), 14 Days After Application, read-out: Visual Growth Reduction (%) CIRAR
[11] = crabgrass (Digitaria sanguinalis), 14 Days After Application, read-out: Visual Growth Reduction (%) DIGSA
[12] = lambsquarters (Chenopodium album), 14 Days After Application, read-out: Visual Growth Reduction (%) CHEAL
[13] = redroot pigweed (Amaranthus retroflexus), 14 Days After Application, read-out: Visual Growth Reduction (%) AMARE
[14] = wild oat (Avena fatua), 14 Days After Application, read-out: Visual Growth Reduction (%) AVEFA
[15] = yellow nutsedge (Cyperus esculentus), 14 Days After Application, read-out: Visual Growth Reduction (%) CYPES
[16] = ALOMY: blackgrass (Alopecurus myosuroides), 14 days after application, read-out: Visual Growth Reduction (%) 14 Days After Application, ALOMY
[17] = AMARE: redroot pigweed (Amaranthus retroflexus), 14 days after application, read-out: Visual Growth Reduction (%) 14 Days After Application, AMARE
[18] = AVEFA: wild oat (Avena fatua), 14 days after application, read-out: Visual Growth Reduction (%) 14 Days After Application, AVEFA
[19] = CHEAL: lambsquarters (Chenopodium album), 14 days after application, read-out: Visual Growth Reduction (%) 14 Days After Application, CHEAL
[20] = CIRAR: canada thistle (Cirsium arvense), 14 days after application, read-out: Visual Growth Reduction (%) 14 Days After Application, CIRAR
[21] = CYPES: yellow nutsedge (Cyperus esculentus), 14 days after application, read-out: Visual Growth Reduction (%) 14 Days After Application, CYPES
[22] = DIGSA: crabgrass (Digitaria sanguinalis), 14 days after application, read-out: Visual Growth Reduction (%) 14 Days After Application, DIGSA

Structure (SMILES)	pest or weed control at 140 g/ha [1]	pest or weed control at 140 g/ha [2]	pest or weed control at 140 g/ha [3]	pest or weed control at 140 g/ha [4]	pest or weed control at 140 g/ha [5]	pest or weed control at 140 g/ha [6]	pest or weed control at 140 g/ha [7]	pest or weed control at 140 g/ha [8]	pest or weed control at 140 g/ha [9]	pest or weed control at 140 g/ha [10]	pest or weed control at 140 g/ha [11]	pest or weed control at 140 g/ha [12]	pest or weed control at 140 g/ha [13]	pest or weed control at 140 g/ha [14]	pest or weed control at 140 g/ha [15]	pest or weed control at 140 g/ha [16]	pest or weed control at 140 g/ha [17]	pest or weed control at 140 g/ha [18]	pest or weed control at 140 g/ha [19]	pest or weed control at 140 g/ha [20]	further results
COC(=O)c1nc(-c2ccc(C(F)F)cc2)c(F)cc1Cl [F209, Methyl 3-chloro-6-(4-(difluoromethyl)phenyl)-5-fluoropicolinate]	0 to 29%	85 to 94%	0 to 29%	0 to 29%	0 to 29%	0 to 29%	0 to 29%	0 to 29%	0 to 29%	60 to 74%	0 to 29%	85 to 94%	45 to 59%	0 to 29%	0 to 29%	–	–	–	–	–	–
COC(=O)c1nc(-c2cnc(C(F)(F)F)cc2Cl)ccc1Cl [F194, Methyl 4′,5-dichloro-6′-(trifluoromethyl)-[2,3′-bipyridine]-6-carboxylate]	45 to 59%	95 to 100%	0 to 29%	0 to 29%	0 to 29%	45 to 59%	0 to 29%	0 to 29%	–	–	–	–	–	–	–	0 to 29%	0 to 29%	0 to 29%	30 to 44%	75 to 84%	pest or weed control at 140 g/ha [21]: 0 to 29%; pest or weed control at 140 g/ha [22]: 0 to 29%
CO/N=C/c1c(C(F)(F)F)ccc(-c2ccc(Cl)c(C(=O)OC)n2)c1Cl [F141, Methyl (E)-3-chloro-6-(2-chloro-3-((methoxyimino)methyl)-4-(trifluoromethyl)phenyl)picolinate]	0 to 29%	0 to 29%	60 to 74%	0 to 29%	0 to 29%	0 to 29%	0 to 29%	0 to 29%	–	–	–	–	–	–	–	0 to 29%	75 to 84%	0 to 29%	0 to 29%	0 to 29%	pest or weed control at 140 g/ha [21]: 0 to 29%; pest or weed control at 140 g/ha [22]: 60 to 74%
Cc1cc(C(F)(F)F)ccc1-c1nc(C(=O)O)c(Cl)cc1F [F267, 3-Chloro-5-fluoro-6-(2-methyl-4-(trifluoromethyl)phenyl) picolinic acid]	75 to 84%	95 to 100%	60 to 74%	0 to 29%	85 to 94%	95 to 100%	0 to 29%	60 to 74%	30 to 44%	85 to 94%	85 to 94%	95 to 100%	95 to 100%	45 to 59%	0 to 29%	–	–	–	–	–	–
COC(=O)c1nc(-c2cc(C)c(C)cc2Cl)ccc1Cl [F49, Methyl 3-chloro-6-(2-chloro-4,5-dimethylphenyl) picolinate]	0 to 29%	0 to 29%	0 to 29%	0 to 29%	0 to 29%	0 to 29%	0 to 29%	0 to 29%	–	–	–	–	–	–	–	0 to 29%	30 to 44%	0 to 29%	45 to 59%	0 to 29%	pest or weed control at 140 g/ha [21]: 0 to 29%; pest or weed control at 140 g/ha [22]: 0 to 29%
COC(=O)c1nc(-c2cc3c(cc2Cl)OC(F)(F)O3)c(F)cc1Cl [F153, Methyl 3-chloro-6-(6-chloro-2,2-difluorobenzo[d] [1,3]dioxol-5-yl)-5-fluoropicolinate]	75 to 84%	95 to 100%	85 to 94%	0 to 29%	85 to 94%	95 to 100%	0 to 29%	30 to 44%	–	–	–	–	–	–	–	60 to 74%	95 to 100%	60 to 74%	85 to 94%	85 to 94%	pest or weed control at 140 g/ha [21]: 0 to 29%; pest or weed control at 140 g/ha [22]: 85 to 94%
COC(=O)c1nc(-c2ccc3c(c2OC)OC(F)(F)O3)ccc1Cl [F369, Methyl 3-chloro-6-(2,2-difluoro-4-methoxybenzo[d][1,3]dioxol-5-yl)picolinate]	45 to 59%	95 to 100%	30 to 44%	0 to 29%	60 to 74%	85 to 94%	0 to 29%	60 to 74%	30 to 44%	85 to 94%	85 to 94%	30 to 44%	60 to 74%	30 to 44%	0 to 29%	–	–	–	–	–	–
COC(=O)c1nc(-c2cc(Br)c(C(F)(F)F)cc2Cl)ccc1Cl [F151, Methyl 6-(5-bromo-2-chloro-4-(trifluoromethyl)phenyl)-3-chloropicolinate]	0 to 29%	95 to 100%	45 to 59%	0 to 29%	0 to 29%	95 to 100%	0 to 29%	0 to 29%	–	–	–	–	–	–	–	0 to 29%	95 to 100%	0 to 29%	95 to 100%	45 to 59%	pest or weed control at 140 g/ha [21]: 0 to 29%; pest or weed control at 140 g/ha [22]: 0 to 29%
COC(=O)c1nc(-c2c(Cl)cc(C(F)(F)F)cc2I)ccc1Cl [F214, methyl 3-chloro-6-(2-chloro-6-iodo-4-(trifluoromethyl)phenyl)picolinate]	0 to 29%	95 to 100%	75 to 84%	0 to 29%	75 to 84%	85 to 94%	30 to 44%	75 to 84%	45 to 59%	85 to 94%	95 to 100%	95 to 100%	75 to 84%	60 to 74%	0 to 29%	–	–	–	–	–	–
O=C(O)c1nc(-c2ccc(OC(F)(F)F)cc2Cl)ccc1Cl [F226, 3-Chloro-6-(2-chloro-4-4-(trifluoromethoxy)phenyl)picolinic acid]	60 to 74%	95 to 100%	60 to 74%	0 to 29%	85 to 94%	85 to 94%	0 to 29%	45 to 59%	45 to 59%	85 to 94%	95 to 100%	95 to 100%	60 to 74%	45 to 59%	0 to 29%	–	–	–	–	–	–
